This is an account of results in patent US20260176320A1, “MODULATORS OF G-PROTEIN COUPLED RECEPTORS” (priority 2018, published 2026).

What all share (assay type): cell-based
Test [1] concerns the target T1, GLP-1R (Homo sapiens, UniProt P43220). Nature of the test: PathHunter β-arrestin assay. The procedure, abridged: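 Overnight-plated cells; 0.2% BSA medium; agonist 22-pt 2× dilution series, duplicate; 90 min, 37 °C/5% CO2; detection reagent 3 h RT, dark; luminescence.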
The target of test [2] is T1, GLP-1R. Kind of test: HitHunter cAMP assay (GLP-1R). Conditions: cAMP; for Emax: read-out: (Emax) GLP-1R. Summed up: (§1)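 Luminescent readout of cAMP by enzyme-fragment immunocompetition gave agonist concentration-response data. Cells (10,000/well) sat in HBSS buffer containing IBMX 625 μM, HEPES 10 mM and BSA 0.2%, exposed to agonist for 30 min at room temperature.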
In another test the target is T2, GIP-R (Homo sapiens, UniProt P48546).
T2 sequence (P48546 22-466): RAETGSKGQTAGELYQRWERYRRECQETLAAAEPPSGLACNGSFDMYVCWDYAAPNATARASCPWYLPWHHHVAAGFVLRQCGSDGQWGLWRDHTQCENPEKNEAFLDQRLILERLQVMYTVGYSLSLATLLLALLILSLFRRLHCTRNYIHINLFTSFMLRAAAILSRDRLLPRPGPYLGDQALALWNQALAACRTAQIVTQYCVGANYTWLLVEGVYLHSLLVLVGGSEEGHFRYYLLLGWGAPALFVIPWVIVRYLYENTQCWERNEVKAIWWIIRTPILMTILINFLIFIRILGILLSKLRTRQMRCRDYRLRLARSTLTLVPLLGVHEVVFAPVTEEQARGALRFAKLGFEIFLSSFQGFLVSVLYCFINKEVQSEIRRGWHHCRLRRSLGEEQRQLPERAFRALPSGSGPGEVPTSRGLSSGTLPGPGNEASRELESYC
Nature of the test: HitHunter cAMP assay (GIP-R). The procedure, abridged: as §1

Setting [3] is: PathHunter β-arrestin assay, read-out: β-arrestin activity EC50.
The mark [4] stands for this setting: Table 3, read-out: EC50 GLP-1R/nM.
Where [5] appears, read: Table 3A, read-out: EC50 GLP-1R/nM.
[6] abbreviates: Table 3; cAMP; read-out: (Emax) GIP-R.
[7] abbreviates: Table 3; cAMP; read-out: EC50 GIP-R/nM.
Where [8] appears, read: Table 3A; cAMP; read-out: (Emax) GIP-R.
[9] abbreviates: Table 3A; cAMP; read-out: EC50 GIP-R/nM.

Like-named read-outs stand apart in the source and are kept apart here. Square brackets hold non-standard residues; d marks the D form. Peptide text beside a SMILES is read from it. * marks the point of attachment. X1 = O=C(CSCC(=O)*)NCCN1C(=O)c2ccccc2C1=O; Aib = CC(C)(N)C(=O)O

T1 sequence (P43220 24-463): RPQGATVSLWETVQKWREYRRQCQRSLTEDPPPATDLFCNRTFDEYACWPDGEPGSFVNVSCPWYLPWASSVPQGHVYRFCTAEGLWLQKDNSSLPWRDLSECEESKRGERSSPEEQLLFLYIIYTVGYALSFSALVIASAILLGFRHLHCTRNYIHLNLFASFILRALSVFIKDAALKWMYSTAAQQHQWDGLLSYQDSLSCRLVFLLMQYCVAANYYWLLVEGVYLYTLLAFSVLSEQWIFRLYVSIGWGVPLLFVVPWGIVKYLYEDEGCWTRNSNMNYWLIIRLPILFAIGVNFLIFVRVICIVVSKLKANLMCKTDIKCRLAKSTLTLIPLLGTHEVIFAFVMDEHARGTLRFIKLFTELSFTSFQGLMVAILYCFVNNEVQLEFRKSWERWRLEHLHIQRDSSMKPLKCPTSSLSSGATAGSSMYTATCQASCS

For the compound `CCCCCCCCCCCCCCCC(=O)NCCCC[C@H](NC(=O)[C@H](CO)NC(=O)[C@@H]1CCCN1C(=O)[C@@H]1CCCN1C(=O)[C@@H]1CCCN1C(=O)[C@H](C)NC(=O)CNC(=O)[C@H](CO)NC(=O)[C@H](CO)NC(=O)[C@@H]1CCCN1C(=O)CNC(=O)CNC(=O)[C@H](C)NC(=O)[C@H](CC(C)C)NC(=O)[C@H](CC(C)C)NC(=O)[C@H](Cc1c[nH]c2ccccc12)NC(=O)[C@H](CC(N)=O)NC(=O)[C@@H](NC(=O)[C@H](Cc1ccccc1)NC(=O)[C@H](CCC(=O)O)NC(=O)C(C)(C)NC(=O)[C@H](C)NC(=O)[C@H](C)NC(=O)[C@H](CCC(N)=O)NC(=O)[C@H](CCCCN)NC(=O)[C@H](CC(=O)O)NC(=O)[C@H](CC(C)C)NC(=O)[C@H](Cc1ccc(O)cc1)NC(=O)[C@@H](NC(=O)[C@H](CO)NC(=O)[C@H](Cc1ccc(O)cc1)NC(=O)[C@H](CC(=O)O)NC(=O)[C@H](CO)NC(=O)[C@@H](NC(=O)[C@H](Cc1ccccc1)NC(=O)[C@@H](NC(=O)CNC(=O)[C@H](CCC(=O)O)NC(=O)CSCC(=O)NCCN1C(=O)CSC1=O)[C@@H](C)O)[C@@H](C)O)[C@@H](C)CC)C(C)C)C(N)=O` [Compound 60], the EC50 at GLP-1R [1] (setting [3]) was > 1000 nM; at GLP-1R [2] (setting [4]), 0.1 to 1 nM; on GLP-1R [2] (setting [5]), 0.1 to 1 nM; at GIP-R (setting [7]) it was 1 to 10 nM; on GIP-R (setting [9]) it was 1 to 10 nM. In addition, the Emax worked out at 98% on GLP-1R [2] (Table 3), 98% at GLP-1R [2] (Table 3A), 37% on GIP-R (setting [6]) and 37% at GIP-R (setting [8]).
On to `CCCCCCCCCCCCCCCC(=O)N[C@@H](CCC(=O)NCCCC[C@H](NC(=O)[C@H](CO)NC(=O)[C@@H]1CCCN1C(=O)[C@@H]1CCCN1C(=O)[C@@H]1CCCN1C(=O)[C@H](C)NC(=O)CNC(=O)[C@H](CO)NC(=O)[C@H](CO)NC(=O)[C@@H]1CCCN1C(=O)CNC(=O)CNC(=O)[C@H](C)NC(=O)[C@H](CC(C)C)NC(=O)[C@H](CC(C)C)NC(=O)[C@H](Cc1c[nH]c2ccccc12)NC(=O)[C@H](CC(N)=O)NC(=O)[C@@H](NC(=O)[C@H](Cc1ccccc1)NC(=O)[C@H](CCC(=O)O)NC(=O)C(C)(C)NC(=O)[C@H](C)NC(=O)[C@H](C)NC(=O)[C@H](CCC(N)=O)NC(=O)[C@H](CCCCN)NC(=O)[C@H](CC(=O)O)NC(=O)[C@H](CC(C)C)NC(=O)[C@H](Cc1ccc(O)cc1)NC(=O)[C@@H](NC(=O)[C@H](CO)NC(=O)[C@H](Cc1ccc(O)cc1)NC(=O)[C@H](CC(=O)O)NC(=O)[C@H](CO)NC(=O)[C@@H](NC(=O)[C@H](Cc1ccccc1)NC(=O)[C@@H](NC(=O)CNC(=O)[C@H](CCC(=O)O)NC(=O)CSCC(=O)NCCN1CC(=O)NC1=O)[C@@H](C)O)[C@@H](C)O)[C@@H](C)CC)C(C)C)C(N)=O)C(=O)O` [Compound 34], for which the EC50 on GLP-1R [1] (setting [3]) was > 1000 nM; on GLP-1R [2] (setting [4]), 0.1 to 1 nM; on GLP-1R [2] (setting [5]) it was 0.1 to 1 nM; at GIP-R (setting [7]), 1 to 10 nM; at GIP-R (setting [9]), 1 to 100 nM. For the same compound, the Emax was 107% on GLP-1R [2] (Table 3), 107% on GLP-1R [2] (Table 3A), 20 to 38% on GIP-R (setting [6]) and 20 to 38% at GIP-R (setting [8]).
Regarding `CC[C@H](C)[C@H](NC(=O)[C@H](CO)NC(=O)[C@H](Cc1ccc(O)cc1)NC(=O)[C@H](CC(=O)O)NC(=O)[C@H](CO)NC(=O)[C@@H](NC(=O)[C@H](Cc1ccccc1)NC(=O)[C@@H](NC(=O)CNC(=O)[C@H](CCC(=O)O)NC(=O)CSCC(=O)NCCN1C(=O)c2ccccc2C1=O)[C@@H](C)O)[C@@H](C)O)C(=O)N[C@@H](Cc1ccc(O)cc1)C(=O)N[C@@H](CC(C)C)C(=O)N[C@@H](CC(=O)O)C(=O)N[C@@H](CCCNC(=N)N)C(=O)N[C@@H](CCC(N)=O)C(=O)N[C@@H](C)C(=O)N[C@@H](C)C(=O)NC(C)(C)C(=O)N[C@@H](CCC(=O)O)C(=O)N[C@@H](Cc1ccccc1)C(=O)N[C@H](C(=O)N[C@@H](CC(N)=O)C(=O)N[C@@H](Cc1c[nH]c2ccccc12)C(=O)N[C@@H](CC(C)C)C(=O)N[C@@H](CC(C)C)C(=O)N[C@@H](C)C(=O)NCC(=O)NCC(=O)N1CCC[C@H]1C(=O)N[C@@H](CO)C(=O)N[C@@H](CO)C(=O)NCC(=O)N[C@@H](C)C(=O)N1CCC[C@H]1C(=O)N1CCC[C@H]1C(=O)N1CCC[C@H]1C(=O)N[C@@H](CO)C(N)=O)C(C)C` [Compound 190] (X1-EGTFTSDYSIYLDRQAA[Aib]EFVNWLLAGGPSSGAPPPS-NH2), the EC50 is > 1000 nM on GLP-1R [1]; 1 to 10 nM on GLP-1R [2] (EC50 GLP-1R/nM, Table 3); 1 to 10 nM at GLP-1R [2] (EC50 GLP-1R/nM, Table 3A); 0.1 to 10 nM on GIP-R (read-out: EC50 GIP-R/nM; Table 3; cAMP); 0.1 to 10 nM at GIP-R (read-out: EC50 GIP-R/nM; Table 3A; cAMP). Also, the Emax at GLP-1R [2] (Table 3) lay in the range of 97 to 119%; at GLP-1R [2] (Table 3A), 97 to 119%; on GIP-R (setting [6]) it was 88 to 119%; at GIP-R (setting [8]) it was 88 to 119%.
Consider `CC[C@H](C)[C@H](NC(=O)[C@H](CO)NC(=O)[C@H](Cc1ccc(O)cc1)NC(=O)[C@H](CC(=O)O)NC(=O)[C@H](CO)NC(=O)[C@@H](NC(=O)[C@H](Cc1ccccc1)NC(=O)[C@@H](NC(=O)CNC(=O)[C@H](CCC(=O)O)NC(=O)COCC(=O)NCCN1C(=O)CSC1=O)[C@@H](C)O)[C@@H](C)O)C(=O)N[C@@H](Cc1ccc(O)cc1)C(=O)N[C@@H](CC(C)C)C(=O)N[C@@H](CC(=O)O)C(=O)N[C@@H](CCCCN)C(=O)N[C@@H](CCC(N)=O)C(=O)N[C@@H](C)C(=O)N[C@@H](C)C(=O)NC(C)(C)C(=O)N[C@@H](CCC(=O)O)C(=O)N[C@@H](Cc1ccccc1)C(=O)N[C@H](C(=O)N[C@@H](CC(N)=O)C(=O)N[C@@H](Cc1c[nH]c2ccccc12)C(=O)N[C@@H](CC(C)C)C(=O)N[C@@H](CC(C)C)C(=O)N[C@@H](C)C(=O)NCC(=O)NCC(=O)N1CCC[C@H]1C(=O)N[C@@H](CO)C(=O)N[C@@H](CO)C(=O)NCC(=O)N[C@@H](C)C(=O)N1CCC[C@H]1C(=O)N1CCC[C@H]1C(=O)N1CCC[C@H]1C(=O)N[C@@H](CO)C(=O)N[C@@H](CCCCN)C(N)=O)C(C)C` [Compound 194], for which the EC50 at GLP-1R [1] (setting [3]) is > 1000 nM; at GLP-1R [2] (setting [4]), 1 to 10 nM; on GLP-1R [2] (setting [5]), 1 to 10 nM; on GIP-R (setting [7]), > 1000 nM; on GIP-R (setting [9]), > 1000 nM. In addition, the Emax on GLP-1R [2] (Table 3) and on GLP-1R [2] (Table 3A) was 98% throughout. Moreover, on GIP-R (read-out: (Emax) GIP-R at 1 μM, Table 3; cAMP; at 1 μM), the Emax at 1 µM came out at 12%.
As for `CC[C@H](C)[C@H](NC(=O)[C@H](CO)NC(=O)[C@H](Cc1ccc(O)cc1)NC(=O)[C@H](CC(=O)O)NC(=O)[C@H](CO)NC(=O)[C@@H](NC(=O)[C@H](Cc1ccccc1)NC(=O)[C@@H](NC(=O)CNC(=O)[C@H](CCC(=O)O)NC(=O)CCCC(=O)NCCN1C(=O)CSC1=O)[C@@H](C)O)[C@@H](C)O)C(=O)N[C@@H](Cc1ccc(O)cc1)C(=O)N[C@@H](CC(C)C)C(=O)N[C@@H](CC(=O)O)C(=O)N[C@@H](CCCCN)C(=O)N[C@@H](CCC(N)=O)C(=O)N[C@@H](C)C(=O)N[C@@H](C)C(=O)NC(C)(C)C(=O)N[C@@H](CCC(=O)O)C(=O)N[C@@H](Cc1ccccc1)C(=O)N[C@H](C(=O)N[C@@H](CC(N)=O)C(=O)N[C@@H](Cc1c[nH]c2ccccc12)C(=O)N[C@@H](CC(C)C)C(=O)N[C@@H](CC(C)C)C(=O)N[C@@H](C)C(=O)NCC(=O)NCC(=O)N1CCC[C@H]1C(=O)N[C@@H](CO)C(=O)N[C@@H](CO)C(=O)NCC(=O)N[C@@H](C)C(=O)N1CCC[C@H]1C(=O)N1CCC[C@H]1C(=O)N1CCC[C@H]1C(=O)N[C@@H](CO)C(=O)N[C@@H](CCCCN)C(N)=O)C(C)C` [Compound 193], the EC50 at GLP-1R [1] (setting [3]) was > 1000 nM; at GLP-1R [2] (setting [4]), 1 to 10 nM; on GLP-1R [2] (setting [5]), 1 to 10 nM; at GIP-R (setting [7]) it was 10 to 100 nM; at GIP-R (setting [9]), 10 to 100 nM. Besides, the Emax at GLP-1R [2] (Table 3) is 117%; at GLP-1R [2] (Table 3A), 117%; at GIP-R (setting [6]), 44%; on GIP-R (setting [8]), 44%.
